Data on 28 compounds can be found in US20100022559A1, “BISOXIMES AS FUNGICIDES” (BAYER CROPSCIENCE AG, priority 2006, published 2010).

Series [1] relates to larvae of the mustard beetle (Phaedon cochleariae). Put plainly: Phaedon test (spray treatment). It counts as in vivo. To be noted: active compound concentration 500 ppm, after 7 days, chinese cabbage leaf discs. Here is the method:
(§1) [table] To produce a suitable preparation of active compound, 1 part by weight of active compound is mixed with the stated amounts of solvents and emulsifier, and the concentrate is diluted with emulsifier-containing water to the desired concentration. Discs of chinese cabbage (Brassica pekinensis) are sprayed with an active compound preparation of the desired concentration and, after drying, populated with larvae of the mustard beetle (Phaedon cochleariae). After the desired period of time, the effect in % is determined. 100% means that all beetle larvae have been killed; 0% means that none of the beetle larvae have been killed.

Series [2] is described as follows: logP determination by HPLC on a reversed-phase column (C 18), EEC Directive 79/831 Annex V.A8. It counts as physicochemical. The procedure:
The stated logP values were determined in accordance with EEC Directive 79/831 Annex V.A8 by HPLC (high performance liquid chromatography) on a reversed-phase column (C 18). Temperature: 43° C.

The subject of series [3] is Puccinia recondita. Kind of series: Puccinia Recondita Test (Cereal)/Seed Treatment. To be noted: 50 g/100 kg of seed; seed treatment; evaluation about 7 days after inoculation. It counts as in vivo. The procedure: Puccinia Recondita Test (Cereal)/Seed Treatment
The active compounds are applied as liquid dressings, 1 part by weight of the active compound being mixed with 10 parts by weight of a solvent. For each concentration tested, the appropriate volume from the mixture is pipetted. For the dressing, the preparation is pipetted onto the seed and the seed is shaken in a closed glass bottle for 3 minutes. At 3×12 grains, the seed is sown into a soil/sand mixture in pots. The pots are initially incubated at 5° C. in the dark for 14 days and then cultivated in a greenhouse at a temperature of about 10° C. and 15 hours of light per day for a further 14 days. The plants are then sprayed with a spore suspension of Puccinia recondita and subsequently placed in an incubation cabin at 18° C. and 100% relative atmospheric humidity for 48 hours. The plants are then placed in a greenhouse at a temperature of about 18° C. and a relative atmospheric humidity of 80%. Evaluation is carried out about 7 days after the inoculation. 0% means an efficacy which corresponds to that of the control, whereas an efficacy of 100% means that no infection is observed.

For series [4], the system named is green peach aphid (Myzus persicae). Put plainly: Myzus test (spray treatment). It counts as in vivo. To be noted: active compound concentration 500 ppm, after 5 days, chinese cabbage leaf discs. The procedure:
as §1, with “pekinensis) which are infested by all stages of the green peach aphid (Myzus persicae)” for “pekinensis)”, “concentration.” for “concentration and, after drying, populated with larvae of the mustard beetle (Phaedon cochleariae).”, “aphids” for “beetle larvae”

The mark [5] stands for this setting: method marker [b], isomer A / isomer B / isomer mixture as noted in the cell.
The mark [6] stands for this setting: method marker [a] (footnote not shown), isomer A / isomer B / isomer mixture as noted in the cell.

The compound `CCCC1=NOC(CON=C(CCC)c2cccc(C)n2)(CON=C(CCC)c2cccc(C)n2)C1` (stereo not shown) [Compound 618] yielded an efficacy in series [1] of 100%. The logP in series [2] (method marked [b] in Table 1) was 5.71^[b].
In the case of `CC(=NOCC(C)(C)CON=C(C)c1cccc(C)n1)c1cccc(C)n1` (single isomer, unassigned) [Compound 141], in series [3], the efficacy was at least 70%. In series [2] (setting [5]), the logP is 4.40^[b] (isomer A).
In series [4], `CC(=NOCC1(CON=C(C)c2cccc(C)n2)CC(C(C)(C)C)=NO1)c1cccc(C)n1` (stereo not shown) [Compound 600] showed an efficacy of 100%. The logP in series [2] (method marked [b] in Table 1) was 3.85^[b].
For the compound `CCCC(=NOCCCCON=C(C)c1cccc(C)n1)c1ncccc1C` (single isomer, unassigned) [Compound 327], the logP in series [2] (value marked [b]) was 3.61^[b] (isomer A).
Regarding `CC(=NOCCON=C(C)c1ccncc1)c1ccncc1` [compound 28], the logP in series [2] (setting [5]) is 0.66^[b].
Consider `Cc1cc(C)nc(/C(N)=N/OCCCCO/N=C(\N)c2nc(C)cc(C)n2)n1` [compound 4], for which the logP in series [2] (setting [5]) was 1.73^[b].
With `CC(=NOCC(CON=C(C)c1nc(C)ccc1C)C(C)(C)C)c1nc(C)ccc1C` (single isomer, unassigned) [compound 757], the logP in series [2] (method marked [b] in Table 1) is 5.09^[b]; in series [2] (method marked [c] in Table 1) it was 6.38^[c].
In the case of `Cc1cccc(C=NOCC(C)CON=Cc2cccc(C)n2)n1` (stereo not shown) [compound 668], the logP in series [2] (method marked [b] in Table 1) was 2.28^[b].
As to `C=C(CON=C(C)c1ccccn1)CON=C(C)c1ccccn1` [compound 60], the logP in series [2] (setting [5]) is 3.00^[b].
With `C=C(CON=C(C)c1cccc(C(C)=O)n1)CON=C(C)c1cccc(C(C)=O)n1` [compound 120], the logP in series [2] (setting [5]) was 5.15^[b].
Take `CC(=NOCC(CON=C(C)c1cccc(C)n1)=NO)c1cccc(C)n1` [compound 82]: in series [2] (setting [5]), the logP is 1.91^[b].
As to `CC(=NOc1nc(Cl)nc(ON=C(C)c2cccc(C)n2)c1Cl)c1cccc(C)n1` (single isomer, unassigned) [compound 780], the logP is 4.22^[b] in series [2] (value marked [b]) and 4.88^[c] in series [2] (value marked [c]).
With `CC(=NOCC(C)CON=C(C)c1cncc(C)c1)c1cncc(C)c1` (stereo not shown) [compound 166], the logP in series [2] (setting [6]) is recorded as 1.78^a].
For `CC(=NOCC(C)CON=C(C)c1cccnc1C)c1cccnc1C` (mixture of isomers) [compound 234], in series [2] (setting [6]), the logP is 1.22^[a].
As for `CC(=NOCC(C)CON=C(C)c1cccc(C)n1)c1ccccc1` (stereo not shown) [compound 439], in series [2] (value marked [b]), the logP was 4.91^[b].
Take `CC(=NOCC(C)CON=C(C)c1cccc(N2CCCC2)n1)c1cccc(N2CCCC2)n1` (stereo not shown) [Compound 783]: the logP in series [2] (value marked [a]) was 2.51^[a].
In the case of `Cc1cc(C)nc(C(N)=NOC/C=C/CON=C(N)c2cc(C)cc(C)n2)c1` (single isomer, unassigned) [compound 770], the logP in series [2] (value marked [b]) was 2.55^[b] (isomer B).
As for `CC(=NOCCCCON=C(C)c1cccnc1C)c1cccc(C)n1` [compound 448], the logP in series [2] (value marked [b]) is 1.69^[b].
On to `Cc1cccc(C(=NOCC(C)(C)CON=C(c2ccccc2)c2cccc(C)n2)c2ccccc2)n1` (mixture of isomers) [compound 660], for which the logP in series [2] (method marked [a] in Table 1) was 4.09^[a].
Regarding `CC(=NOCCON=C(C)c1sc(C)nc1C)c1sc(C)nc1C` [compound 53], in series [2] (setting [5]), the logP was 2.70^[b].
Take `Cc1cccc(C(=NOCC(C)(C)CON=C(c2cccc(C)n2)C2CC2)C2CC2)n1` (mixture of isomers) [Compound 281]: the logP in series [2] (value marked [a]) is 4.04^[a].
Regarding `CC(=NOCCCCON=C(C)c1cccc(C)n1)c1cnccn1` [compound 512], the logP in series [2] (value marked [b]) is 3.02^[b].
Regarding `Cc1cccnc1C(CC(C)C)=NOCCCON=C(CC(C)C)c1ncccc1C` [compound 93], in series [2] (setting [6]), the logP was 5.96^[a].
`CC(=NOCC(CON=C(C)c1cccc(C)n1)C(C)C)c1cccc(C)n1` (stereo not shown) [Compound 680]: the values for the logP in series [2] (method marked [b] in Table 1) and in series [2] (method marked [c] in Table 1) were 5.03^[b] and 6.40^[c], respectively.
For `CC(=NOCC(C)(C)CON=C(C)c1cccc(C2CC2)n1)c1cccc(C2CC2)n1` [compound 814], in series [2] (value marked [a]), the logP was 7.36^[a].
In the case of `CC(=NOCC1(CON=C(C)c2cc(C)cc(C)n2)CC(c2ccccc2Cl)=NO1)c1cc(C)cc(C)n1` (stereo not shown) [compound 645], the logP in series [2] (method marked [b] in Table 1) is 3.19^[b].
Turning to `CC(=NOCCCCON=C(C)c1ccnc(C)n1)c1cccc(C)n1` [compound 336], in series [2] (value marked [b]), the logP was 3.28^[b].
For `CC(=NOCCCON=C(C)c1cnc(-c2ccccc2)s1)c1cnc(-c2ccccc2)s1` [compound 49], the logP in series [2] (setting [5]) was 7.07^[b].
